Tests used:
[1] = system: arthrosis and rheumatoid arthritis (RA) patients; conditions: patients without concomitant ASA; cited from earlier work
[2] = weight gain of experimental animals; type: in vivo, rats; conditions: celecoxib doses used for the chronic treatment DRC, alone or combined
[3] = FDA prescribing information; cited from earlier work
[4] = system: rats (lethality); assay: preclinical toxicity (lethality) study after oral administration; type: in vivo, male Wistar rats
Text: In order to determine the possible antinociceptive and toxic effects of the combination, male Wistar rats [Crl:(WI)fBR] with a weight of 180-200 g were used. All experimental procedures complied with the recommendations of the Committee for Research and Ethical Issues of the International Association for the Study of Pain (Covino et al., 1980) and the Guidelines on Ethical Standards for Investigations of Experimental Pain in Animals (Zimmermann 1983). The number of experimental animals was kept to a minimum (6 animals per experimental point for antinociceptive effects and 10 animals per experimental point for adverse effects:lethality). The rats were kept in a room with alternating light/darkness cycles. For twelve hours before the antinociception experiments rats fasted but had free access to water. All experiments were performed during the light phase of the light/darkness cycles.
The lethal toxic effects after single administrations were determined in 3 post-treatment timepoints, 24, 48 and 72 hours, in order to determine the corresponding DRC (death).

[5] = system: gout arthritis induced by intra-articular uric acid; assay: pain-induced functional impairment in the rat model (PIFIR model), uric acid-induced gout arthritis; type: in vivo, male Wistar rats
Protocol: All experiments were performed during the light phase of the light/darkness cycles.

[6] = oral route, cited from earlier work

Row | Compound | GI bleeding incidence [1] | effect on normal weight gain [2] | estimated effective half-life [3] [h] | dose at which the lethality DRC begins ([4]; 24 hours) [mg/kg] | maximal effect (% FI) ([5]; 2.5 h after oral administration, celecoxib 1,000 mg/Kg alone or with methocarbamol 50 mg/Kg) [%] | effect four hours after being administered (% FI) ([5]; 4 h after oral administration, celecoxib 1,000 mg/Kg alone or with methocarbamol 50 mg/Kg) [%] | ED50 ([5]; Rattus norvegicus, po, read-out: ED50 (antinociceptive dose-response curve)) [mg/kg] | peak antinociceptive effectiveness (AUC of temporal course, global antinociceptive effect) ([5]; oral, acute administration, 4-hour assessment, most efficacious dose celecoxib 1,000 mg/Kg (combination with methocarbamol 50 mg/Kg)) | time to peak action ([6]; humans) [h] | time to reach active levels [6] [min] | dose causing lethality effects within 24 hours [4] | antinociceptive effect during the assessment period ([5]; methocarbamol 50 mg/Kg alone, oral, 4-hour assessment)
1 | Cc1ccc(-c2cc(C(F)(F)F)nn2-c2ccc(S(N)(=O)=O)cc2)cc1 [celecoxib, 4-[5-(4-methylphenyl)-3-(trifluoromethyl)-1H-pyrazol-1-yl]benzenesulfonamide] | lower GI bleeding incidence | does not modify the normal weight gain | 8 to 12 | 17800 | 63.6±9.9 | 62.5±7.0 | 51.1 | 191.9±27.2 area units (au) | – | – | – | –
2 | COc1ccccc1OCC(O)COC(N)=O (stereo not drawn) [methocarbamol, 3-(2-methoxyphenoxy)-1,2-propanediol 1-carbamate] | – | – | – | – | – | – | – | – | ≤ 2 | ≤ 30 | 1,000 mg/Kg | did not produce any antinociceptive effect whatsoever
